Several values for one entry are separate records, joined by “and”; a condition that tells them apart may be missing. Identical values can stand only once. No end group written: not given here.
target: T1, recombinant human NRP-1 (hNRP-1) (Homo sapiens, UniProt O14786); assay: chemoluminescence affinity detection: displacement of biotinylated VEGF165A from coated NRP-1; format: binding; settings: VEGF 165A displacement from NRP-1; compounds at 12.5-100 µM; ± standard (fitting) error
T1 construct: purchased BioLegend, San Diego, CA, USA
T1 sequence (O14786 22-923): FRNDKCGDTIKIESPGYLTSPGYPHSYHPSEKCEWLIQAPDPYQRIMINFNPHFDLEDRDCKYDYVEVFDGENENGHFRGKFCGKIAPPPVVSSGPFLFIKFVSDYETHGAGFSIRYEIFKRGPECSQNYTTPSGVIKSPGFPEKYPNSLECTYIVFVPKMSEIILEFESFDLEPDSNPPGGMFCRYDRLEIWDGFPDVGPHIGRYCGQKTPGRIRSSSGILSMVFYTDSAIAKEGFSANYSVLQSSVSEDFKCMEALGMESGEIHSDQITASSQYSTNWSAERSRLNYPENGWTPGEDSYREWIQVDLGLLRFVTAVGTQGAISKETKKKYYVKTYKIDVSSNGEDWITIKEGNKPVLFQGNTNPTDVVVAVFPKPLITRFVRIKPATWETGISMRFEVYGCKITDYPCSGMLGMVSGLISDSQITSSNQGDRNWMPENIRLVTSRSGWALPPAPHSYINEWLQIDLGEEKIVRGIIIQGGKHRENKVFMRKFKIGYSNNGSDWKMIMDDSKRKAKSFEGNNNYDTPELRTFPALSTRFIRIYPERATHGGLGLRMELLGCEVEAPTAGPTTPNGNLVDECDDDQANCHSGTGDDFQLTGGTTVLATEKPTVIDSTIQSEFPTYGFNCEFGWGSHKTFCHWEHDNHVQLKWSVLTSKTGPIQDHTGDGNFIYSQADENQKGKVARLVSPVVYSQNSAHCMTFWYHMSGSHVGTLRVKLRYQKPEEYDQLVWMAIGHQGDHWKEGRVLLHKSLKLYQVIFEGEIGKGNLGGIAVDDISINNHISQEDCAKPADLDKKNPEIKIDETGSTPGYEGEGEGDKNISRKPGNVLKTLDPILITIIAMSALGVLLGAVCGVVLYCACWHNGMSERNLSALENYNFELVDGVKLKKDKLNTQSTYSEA

IC50	Compound
68.5 ± 3.3 µM	N=C(N)NCCCC[C@H](N)C(=O)NCCCC[C@H](N)C(=O)NCc1cn(Cc2cn([C@@H](CCCNC(=N)N)C(=O)O)nn2)nn1 [1L, H-Lys(Har)-Gly[Trl]Gly[Trl]Arg-OH]
69.4 ± 4 µM	CC(C)(c1cn([C@@H](CCCNC(=N)N)C(=O)O)nn1)n1cc(CNC(=O)[C@H](N)CCCCNC(=O)[C@@H](N)CCCCNC(=N)N)nn1 [2D, H-D-Lys(Har)-Gly[Trl]Mba[Trl]Arg-OH]
91 µM and 90.5 µM	CC(C)(NC(=O)[C@H](N)CCCCNC(=O)[C@@H](N)CCCCNC(=N)N)c1cn(C(C)(C)c2cn([C@@H](CCCNC(=N)N)C(=O)O)nn2)nn1 [3D, H-D-Lys(Har)-Mba[Trl]Mba[Trl]Arg-OH]
87.5 ± 3.3 µM	CC(C)(c1cn([C@@H](CCCNC(=N)N)C(=O)O)nn1)n1cc(CNC(=O)[C@@H](N)CCCCNC(=O)[C@@H](N)CCCCNC(=N)N)nn1 [2L, H-Lys(Har)-Gly[Trl]Mba[Trl]Arg-OH]
31.2 ± 4.2 µM	ATWLPPR [A7R, ATWLPPR, reference compound]
36 µM and 35.6 µM	CC(C)(NC(=O)[C@H](N)CCCCNC(=O)[C@@H](N)CCCCNC(=N)N)c1cn(Cc2cn([C@@H](CCCNC(=N)N)C(=O)O)nn2)nn1 [4D, H-D-Lys(Har)-Mba[Trl]Gly[Trl]Arg-OH]
23 µM and 23.4 µM	CC(C)(NC(=O)[C@@H](N)CCCCNC(=O)[C@@H](N)CCCCNC(=N)N)c1cn(C(C)(C)c2cn([C@@H](CCCNC(=N)N)C(=O)O)nn2)nn1 [3L, H-Lys(Har)-Mba[Trl]Mba[Trl]Arg-OH]
63.6 ± 2.3 µM	N=C(N)NCCCC[C@H](N)C(=O)NCCCC[C@@H](N)C(=O)NCc1cn(Cc2cn([C@@H](CCCNC(=N)N)C(=O)O)nn2)nn1 [1D, H-D-Lys(Har)-Gly[Trl]Gly[Trl]Arg-OH]

Source: publication PMC10891769, “Chirality and Rigidity in Triazole-Modified Peptidomimetics Interacting with Neuropilin-1” (Pharmaceuticals, 2024)
